Calls of active or inactive are those of the source.

The test system of one series is K562. As to the kind of experiment: Antiproliferative activity against human K562 cells after 24 hrs by MTT assay. The settings on record: K562, 24 h. It is filed as functional, cell-based. In general terms: Tetrazolium dyes change colour on reduction, which living cells bring about.
The test system of another series is MDA-MB-231. Briefly: Antiproliferative activity against human MDA-MB-231 cells after 24 hrs by MTT assay. In kind it is functional, cell-based. The settings on record: MDA-MB-231, 24 h.
Series [1] has as its system HepG2. As to the kind of experiment: Antiproliferative activity against human HepG2 cells after 24 hrs by MTT assay. In kind it is functional, cell-based. Particulars: HepG2, 24 h.
The next series concerns MCF7. Briefly: Antiproliferative activity against human MCF7 cells after 24 hrs by MTT assay. In kind it is functional, cell-based. Particulars: MCF7, 24 h.
Series [2] can be described thus: Selectivity ratio of IC50 for human HL-7702 cells to IC50 for human HepG2 cells. In kind it is functional.
Series [3] has as its system HepG2. As to the kind of experiment: Induction of apoptosis in human HepG2 cells assessed as upregulation of Bid expression at 0.2 uM after 24 hrs by Western blot method. In kind it is functional, cell-based. (In western blotting, separated proteins are transferred to a membrane and probed.)
Series [4] has as its system HepG2. As to the kind of experiment: Induction of apoptosis in human HepG2 cells assessed as increase in cleaved PARP levels at 0.2 uM after 24 hrs by Western blot method. In kind it is functional, cell-based.
Series [5] relates to HepG2. Briefly: Induction of apoptosis in human HepG2 cells assessed as early apoptotic cells at 0.2 uM after 24 hrs by annexin-V/propidium iodide staining-based flow cytometric method relative to control. It is filed as functional. (In general: A flow cytometer gives signals particle by particle.)
For series [6], the system named is L02. As to the kind of experiment: Antiproliferative activity against human HL-7702 cells after 24 hrs by MTT assay. It is filed as functional, cell-based. The settings on record: L02, 24 h.
Series [7] concerns L02. Briefly: Antiproliferative activity against human HL-7702 cells after 48 hrs by MTT assay. It is filed as functional, cell-based. The settings on record: L02, 48 h.
Series [8] concerns the target Tumour suppressor p53/oncoprotein Mdm2 (Homo sapiens) (UniProt P04637+Q00987). As to the kind of experiment: Inhibition of MDM2/p53 interaction in human HepG2 cells assessed as increase in p53 to MDM2 ratio at 0.2 uM after 24 hrs by Western blot method (reference value: 0.083). It is filed as cell-based.
Series [9] concerns NIH3T3. As to the kind of experiment: Antiproliferative activity against mouse NIH/3T3 cells after 24 hrs by MTT assay. It is filed as cell-based. The settings on record: mouse, nih3t3, 24 h.
Series [10] concerns HepG2. As to the kind of experiment: Induction of apoptosis in human HepG2 cells assessed as late apoptotic cells at 0.2 uM after 24 hrs by annexin-V/propidium iodide staining-based flow cytometric method relative to control. In kind it is functional.
The subject of series [11] is NIH3T3. As to the kind of experiment: Antiproliferative activity against mouse NIH/3T3 cells after 48 hrs by MTT assay. In kind it is cell-based. Particulars: nih3t3, 48 h.
Series [12] in a line: Half life in cell culture medium at 10 uM by HPLC method. In kind it is physicochemical.
The test system of series [13] is HepG2. Briefly: Induction of apoptosis in human HepG2 cells assessed as downregulation of Bcl-xL expression at 0.2 uM after 24 hrs by Western blot method. It is filed as functional, cell-based.
The nature of series [14]: Half life in Kunming mouse plasma at 10 uM by HPLC method. In kind it is ADME, cell-free.
Series [15] concerns HepG2. As to the kind of experiment: Cell cycle arrest in human HepG2 cells assessed as accumulation at S phase at 0.2 uM after 28 hrs by propidium iodide staining-based flow cytometric method relative to control.
Series [16] concerns HepG2. Briefly: Induction of apoptosis in human HepG2 cells assessed as ratio of Bax/Bcl-2 at 0.2 uM after 24 hrs by Western blot method (reference value: 0.23). In kind it is functional.
Series [17] concerns HepG2. As to the kind of experiment: Induction of apoptosis in human HepG2 cells assessed as increase in cleaved caspase-9 levels at 0.2 uM after 24 hrs by Western blot method. In kind it is functional, cell-based.
Series [18] has as its system HepG2. Briefly: Induction of apoptosis in human HepG2 cells assessed as increase in cleaved caspase-3 levels at 0.2 uM after 24 hrs by Western blot method. It is filed as functional, cell-based.

Chain of Tumour suppressor p53/oncoprotein Mdm2 (Homo sapiens) (P04637 whole entry, looked up): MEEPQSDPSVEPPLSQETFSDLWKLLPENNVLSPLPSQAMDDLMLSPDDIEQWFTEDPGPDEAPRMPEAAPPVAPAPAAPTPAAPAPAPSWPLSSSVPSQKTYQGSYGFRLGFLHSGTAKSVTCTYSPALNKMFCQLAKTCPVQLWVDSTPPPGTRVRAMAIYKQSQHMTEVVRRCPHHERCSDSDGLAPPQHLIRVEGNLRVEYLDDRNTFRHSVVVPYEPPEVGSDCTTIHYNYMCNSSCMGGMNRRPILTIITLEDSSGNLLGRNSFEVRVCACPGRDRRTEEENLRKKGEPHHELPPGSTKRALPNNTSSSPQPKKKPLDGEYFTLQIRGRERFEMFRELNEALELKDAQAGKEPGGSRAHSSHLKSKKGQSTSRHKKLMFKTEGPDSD
Chain of Tumour suppressor p53/oncoprotein Mdm2 (Homo sapiens) (Q00987 whole entry, looked up): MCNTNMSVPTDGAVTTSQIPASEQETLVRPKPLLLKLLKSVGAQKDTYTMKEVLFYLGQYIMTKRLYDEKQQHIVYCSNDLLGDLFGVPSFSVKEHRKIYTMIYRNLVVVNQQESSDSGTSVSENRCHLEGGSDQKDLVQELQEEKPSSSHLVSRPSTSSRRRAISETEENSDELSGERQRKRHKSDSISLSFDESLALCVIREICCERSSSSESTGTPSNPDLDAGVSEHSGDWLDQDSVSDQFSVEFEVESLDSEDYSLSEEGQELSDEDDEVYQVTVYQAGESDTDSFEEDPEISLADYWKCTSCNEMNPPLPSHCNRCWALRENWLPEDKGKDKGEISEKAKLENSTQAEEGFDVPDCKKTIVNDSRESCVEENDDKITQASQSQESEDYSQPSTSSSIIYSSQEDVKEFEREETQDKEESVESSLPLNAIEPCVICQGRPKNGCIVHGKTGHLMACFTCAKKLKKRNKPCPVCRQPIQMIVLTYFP

Usually IC50 stands for the concentration at which inhibition is half-maximal. For the molecule `Cc1ccc2c(=O)c3cccc(CC(=O)OCCCCCOc4c5c(cc6c(=O)c7ccccc7oc46)CCC(C)(C)O5)c3oc2c1C`, the IC50 with K562 stood at 15 µM; in the series with MDA-MB-231, 11.2 µM; in the series with HepG2 [1], 1.53 µM; in the series on MCF7, 8.72 µM.
The term half-life denotes the time needed for the level to fall by half in the phase considered. Take `Cc1ccc2c(=O)c3cccc(CC(=O)OCCCCCCOc4c5c(cc6c(=O)c7ccccc7oc46)CCC(C)(C)O5)c3oc2c1C`: the “Ratio IC50” value in series [2] was 2092. Besides, the result in the series on HepG2 [3], in the series on HepG2 [4], in the series on HepG2 [13], in the series with HepG2 [17] and in the series on HepG2 [18] was Active. Moreover, the Activity is recorded as 38% with HepG2 [5]; “Non-Toxic” in the series on NIH3T3 [9]; 42% in the series on HepG2 [10]; “Non-Toxic” with NIH3T3 [11]; 90% in the series on HepG2 [15]. Moreover, the IC50 in the series on L02 [6] is 378 to 452 µM; with K562 it was 9.13 µM; in the series with L02 [7], 293 to 352 µM; in the series on MDA-MB-231 it was 1.13 µM; with HepG2 [1], 0.216 µM; with MCF7 it was 0.534 µM. Further, the fold change (FC) in [8] worked out at 0.81. The half-life at 10 µM in [12] is 24.8 h; in series [14], 4.2 h. Besides, the Ratio in the series on HepG2 [16] came out at 0.87.
Regarding `Cc1ccc2c(=O)c3cccc(CC(=O)OCCCOc4c5c(cc6c(=O)c7ccccc7oc46)CCC(C)(C)O5)c3oc2c1C`, the IC50 in the series on K562 stood at 32.3 µM; in the series on MDA-MB-231 it was 32.2 µM; in the series on HepG2 [1], 32.7 µM; in the series on MCF7, 51.7 µM.

The values are drawn from ChEMBL document CHEMBL4138163, “DMXAA-pyranoxanthone hybrids enhance inhibition activities against human cancer cells with multi-target functions” (Eur J Med Chem, 2018).
